For the experiment, the system named is 777334-354-R2-J4-PDC tumor spheroids with HUVEC/MSC, viability. The experiment in a line: Anticancer human tumor 777334-354-R2-J4-PDC patient-derived pancreatic adenocarcinoma cell line growth inhibition [GQUAD]. Conditions: for viability, T/C: stronger effect = lower value; for IC50: curve of compound. From the text:
DNA G-quadruplex Stabilizer Agents in Combinations in Complex Spheroids
A high-throughput screen of multi-cell type tumor spheroids was designed to identify active combinations of DNA G-quadruplex stabilizer agents and targeted small molecules. Complex spheroids include a stromal component modeled by human endothelial cells (HUVEC) and fibroblasts modeled by human mesenchymal stem cells (MSCs). The concentration ranges selected for each drug and investigational agent were based upon clinically achievable concentrations if the clinical Cmax of the agent was known.
Compounds. The drugs and investigational agents: pidnarulex (CX-5461; NSC782164), APTO-253 (NSC789042), BRACO-19 (NSC847499), peposertib (NSC802822), ceralasertib (NSC780249), elimusertib (NSC800525), camonsertib (NSC841442), AZD-1390 (NSC803789), olaparib (NSC753686), talazoparib (NSC767125), ART-558 (NSC835418), sotorasib (NSC818433), MRTX-1133 (NSC836407), SN-38 (NSC673596), topotecan (NSC609699), etoposide (NSC141540), doxorubicin (NSC123127), gemcitabine (NSC613327), 5-fluorouracil (NSC19893), paclitaxel (NSC125973), vemurafenib (NSC761431), panobinostat (NSC761190), R-306465 (JNJ-16241199; NSC773264), adavosertib (NSC754352), TP-3654 (NSC805149), carboplatin (NSC241240), KSQ-4279 (NSC840948), and staurosporine (NSC755774) were obtained from the National Cancer Institute (NCI) Developmental Therapeutics Program Chemical Repository (34). The FDA-approved anticancer drug set is available from the NCI Developmental Therapeutics Program. […] The stock solutions were prepared in dimethyl sulfoxide (DMSO, Sigma-Aldrich, St. Louis, MO, cat. D2650) at 800-fold the tested concentration and stored at -70 degrees C prior to their use. All drugs and investigational agents were tested over a range starting from a high concentration at or near the clinical Cmax and decreasing in half-log increments. If the clinical Cmax for an agent had not been determined, the highest concentration tested was 10 microM.
2.3 Cell Culture. All cells were maintained in an incubator at 37 degrees C and 5% CO2 with 95% humidity. The PDC lines were cultured according to standard operating procedures established by the NCI PDMR. All PDCs were thawed and cultured in Matrigel-coated flasks prepared with a working solution of 1X Ham's F-12 nutrient mix, without supplementation (Invitrogen, cat. 11765054), 100 U/mL penicillin-streptomycin (Invitrogen, cat. 15140122), and 2.5% Matrigel (Corning Inc., cat. 354248) for the first three passages. The 857933-349-R-J2-PDC line was cultured in 6C/Colon 1B media, which includes advanced DMEM/F-12 (Thermo Fisher Scientific, cat. 12634028), 10 mM HEPES (Thermo Fisher Scientific, cat. 15630080), 1X GlutaMAX supplement (Thermo Fisher Scientific, cat. 35050061), 0.1 mg/mL primocin (InvivoGen, cat. ant-pm-2), 10% defined fetal bovine serum, heat inactivated (HyClone Laboratories Inc., cat. SH30070.03HI), 50% L-WRN conditioned media (ATCC, cat. CRL-3276), 1.25 mM N-Acetyl-L-cysteine (Sigma-Aldrich, cat. A9165), 10 mM nicotinamide (Sigma-Aldrich, cat. N0636), 1X B-27 supplement (Thermo Fisher Scientific, cat. 17504044), 1X N-2 supplement (Thermo Fisher Scientific, cat. 17502048), 10 microM Y-27632 dihydrochloride (Tocris Bioscience, cat. 1254), and 50 ng/mL human EGF recombinant protein (Thermo Fisher Scientific, cat. PHG0311). The 485176-168-R4-J1-PDC line was cultured in Panc media, which includes all 6C/Colon 1B media components plus 100 ng/mL human FGF-10 (Thermo Fisher Scientific, cat. 100-26), 500 nM SB-431542 (Selleckchem, cat. S1067), and gastrin (Tocris, cat. 3006).
[…]

For orientation: viability, T/C means the ratio of treated to control. The IC50 is the point on the concentration scale where inhibition reaches its midpoint.

“And” between values parts separate entries of the source, which are not always exact repeats. Identical values can stand only once. A value given as a limit tells only on which side of the number the result lay.
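Also: spheroids exposed to compounds for 7 days before readout.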

Consider `C#Cc1c(F)ccc2cc(O)cc(-c3ncc4c(N5CC6CCC(C5)N6)nc(OCC56CCCN5CC(F)C6)nc4c3F)c12` (configuration not stated), for which the IC50 is < 31.6 nM. Also, under “compound 0.0316 µM”, the viability, T/C was 45.7% and 46.4% and 48.8%. Moreover, the viability, T/C (compound 0.1 µM) is 38.8% and 41.4% and 41.3%. The viability, T/C (compound 0.316 µM) is 35.2% and 32.8% and 38.1%. Besides, the viability, T/C (compound 1 µM) is 30.4% and 28.5% and 34%. Also, the viability, T/C (compound 3.16 µM) is 26.4% and 36.1% and 29.3%. The viability, T/C (compound 10 µM) is 20.9% and 19.6% and 22.6%.

`C=CCn1c(=O)c2cnc(Nc3ccc(N4CCN(C)CC4)cc3)nc2n1-c1cccc(C(C)(C)O)n1`: the half-maximal inhibitory concentration (IC50) is 821 nM and 869 nM and 787 nM. Moreover, for the setting “compound 0.0316 µM”, the viability, T/C is 93.8% and 101% and 99.7%. Moreover, for the setting “compound 0.1 µM”, the viability, T/C is 85.8% and 102% and 88%. The viability, T/C (compound 0.316 µM) is 81.1% and 84.7% and 74.9%. Further, the viability, T/C (compound 1 µM) is 43.1% and 45.4% and 41.5%. Also, the viability, T/C (compound 3.16 µM) is 35.6% and 37.4% and 39%. Further, the viability, T/C (compound 10 µM) is 30.4% and 38.4% and 35.2%.

With `CC(C)(O)C1CCC(Nc2ccc3ncc(-c4cccc(C(F)(F)F)c4)n3n2)CC1` (configuration not stated), the IC50 was 1640 nM and 1290 nM and 876 nM. The viability, T/C (compound 0.0316 µM) is 84.4% and 103% and 93.7%. Under “compound 0.1 µM”, the viability, T/C was 80.4% and 88.1% and 93.2%. The viability, T/C (compound 0.316 µM) is 82.7% and 83.2% and 94.2%. Further, the viability, T/C (compound 1 µM) was 62.6% and 55.1% and 44.4%. Moreover, the viability, T/C (compound 3.16 µM) was 32.1% and 31.5% and 31.2%. Also, the viability, T/C (compound 10 µM) is 34.5% and 39.3% and 36.5%.

For the molecule `CCCS(=O)(=O)Nc1ccc(F)c(C(=O)c2c[nH]c3ncc(-c4ccc(Cl)cc4)cc23)c1F`, the IC50 was 7890 nM and 7980 nM and 7600 nM. In addition, the viability, T/C (compound 0.0316 µM) was 107% and 111% and 99.5%. The viability, T/C (compound 0.1 µM) was 109% and 105% and 92.8%. The viability, T/C (compound 0.316 µM) was 114% and 127% and 108%. In addition, the viability, T/C (compound 1 µM) was 110% and 120% and 102%. For the setting “compound 3.16 µM”, the viability, T/C is 98.7% and 115% and 111%. For the same molecule, the viability, T/C (compound 10 µM) was 37.2% and 34.2% and 33.4%.

As for `COc1ncnc(C2CC2)c1-c1ncc2cnn(Cc3ccc(-c4nc(C(F)(F)F)cn4C(C)C)cc3)c2n1`, the IC50 is > 10000 nM. In addition, the viability, T/C (compound 0.0316 µM) is 102% and 98.3% (2×). Moreover, the viability, T/C (compound 0.1 µM) was 96.7% and 90.9% and 106%. Moreover, for the setting “compound 0.316 µM”, the viability, T/C was 103% and 98.9% and 98.6%. Also, for the setting “compound 1 µM”, the viability, T/C is 91.9% and 99.5% and 98.8%. Besides, where the note is “compound 3.16 µM”, the viability, T/C is 102% and 100% and 99.3%. For the same molecule, the viability, T/C (compound 10 µM) is 109% and 111% and 98.8%.

In the case of `O=C(NO)c1cnc(N2CCN(S(=O)(=O)c3ccc4ccccc4c3)CC2)nc1`, the 50% inhibitory concentration (IC50) was 1200 nM and 1070 nM and 793 nM. In addition, the viability, T/C (compound 0.0316 µM) is 80.7% and 107% and 88.9%. Besides, for the setting “compound 0.1 µM”, the viability, T/C is 89.8% and 86% and 83.7%. For the same molecule, the viability, T/C (compound 0.316 µM) was 77.1% (2×) and 79.3%. Also, the viability, T/C (compound 1 µM) was 58% and 59.4% and 44%. Under “compound 3.16 µM”, the viability, T/C is 11.9% and 9.01% and 3.01%. For the setting “compound 10 µM”, the viability, T/C was 0.93% and 0.25% and 0.19%.
